Source: US20250381242A1 (INVAIO SCIENCES, INC., priority 2024, published 2025)
Residues, ends and D or L forms follow the SMILES beside them. No end group written: not given here.

Key:
A. tumefaciens = settings: 24 h, 10 μM
E. amylovora = settings: 24 h, 10 μM
L. crescens = settings: 10 μM
E. coli = test: Bacterial growth inhibition by OD600 absorbance, E. coli; format: cell-based, E. coli (DH5-alpha); settings: peptide 10 μM, 24 hours at 37° C., OD 600 nm
Procedure: (§1) Antimicrobial activity of antimicrobial peptides was tested against the agricultural microbial pests A. tumefaciens, E. amylovora, E. coli, and X. citri, using OD absorbance measurement to detect bacterial growth.
(§2) Antimicrobial peptides were synthesized using solid phase peptide synthesis method and resuspended in 10% DMSO to a 1 mM stock concentration. The stock solution was aliquoted in cryovials and stored at −80° C.
(§3) An aliquot of 198 μl of the bacterial culture was added to each well in a 96-well plate and 2 μl of a 1 mM peptide stock solution was added to each well, for a final treatment concentration of 10 μM of a given peptide. Media only wells were included to control for contamination. The positive controls were 50 μg/ml oxytetracycline hydrochloride and 500 μg/ml streptomycin sulfate. A 0.1% DMSO treatment was included as a negative control.
(§4) An initial absorbance reading of the bacterial suspensions was taken at 600 nm. Then, the bacteria were grown in an incubator at 30° C. (A. tumefaciens, E. amylovora, X. citri) or 37° C. (E. coli) for 24 hours, after which the final absorbance reading was measured. Using the initial and final absorbance reading compared to negative and positive controls, the percent inhibition of the bacterial strain by given peptide treatment was determined.

X. citri = test: Bacterial growth inhibition by OD600 absorbance, X. citri; format: cell-based, X. citri subsp. citri (ATCC 49118); settings: peptide 10 μM, 24 hours at 30° C., OD 600 nm
Procedure: as §1, §2, §3, §4

Row | Molecule | growth inhibition, A. tumefaciens (A. tumefaciens) [%] | growth inhibition, E. amylovora (E. amylovora) [%] | growth inhibition, L. crescens (L. crescens) [%] | growth inhibition, E. coli (E. coli) [%] | growth inhibition, X. citri (X. citri) [%]
1 | CSCC[C@H](NC(=O)CNC(=O)[C@H](C)NC(=O)[C@H](CCC(=O)O)NC(=O)[C@H](CCCCN)NC(=O)[C@H](C)NC(=O)[C@@H](NC(=O)CNC(=O)[C@H](CCCCN)NC(=O)[C@H](CC(C)C)NC(=O)[C@H](CC(C)C)NC(=O)[C@H](CC(=O)O)NC(=O)CNC(=O)[C@H](Cc1ccccc1)NC(=O)[C@H](C)NC(=O)CN)C(C)C)C(=O)N[C@@H](CCCCN)C(=O)N[C@@H](CC(C)C)C(=O)N[C@@H](CC(C)C)C(=O)N[C@@H](CC(N)=O)C(=O)N[C@@H](CCSC)C(=O)N[C@@H](C)C(=O)N[C@@H](CCC(N)=O)C(=O)N[C@@H](CS)C(=O)N[C@@H](CCCCN)C(=O)N[C@@H](CC(C)C)C(=O)N[C@@H](CO)C(=O)NCC(=O)N[C@@H](CCCCN)C(=O)N[C@@H](CS)C(=O)O [compound 19] (H-GAFGDLLKGVAKEAGMKLLNMAQCKLSGKC-OH; N-terminus and C-terminus assumed) | <90 | <90 | <90 | – | –
2 | AFWKKFFKKFFKSAKKFG [compound 67] | 99.57 | 100.00 | <90 | 100.00 | 100.00
3 | AIWKKIIKKIIKSAKKIG [compound 78] | 100.00 | 100.00 | <90 | <90 | 100.00
4 | ALWKTLLKHVGKAAGKAALNAVTDMVNQ [compound 25] | 100.00 | 100.00 | <90 | 100.00 | 100.00
5 | AWKETIRKYLKNEIKKKWRKAVIAW [compound 14] | 100.00 | 100.00 | <90 | 100.00 | 100.00
6 | FFRNLWKGAKAAFRAGHAAWRA [compound 41] | 100.00 | 100.00 | <90 | <90 | 100.00
7 | FKRLEKLFKKIWNWK [compound 79] | 100.00 | 100.00 | <90 | <90 | 100.00
8 | FQRYFHRYARFLAKIWKG [compound 62] | 100.00 | 100.00 | <90 | <90 | 100.00
9 | FRIRVRVKWKLFKKI [compound 81] | 100.00 | 100.00 | <90 | 100.00 | <90
10 | GANALKKYFTILKKFFKLAW [compound 61] | <90 | <90 | <90 | 100.00 | <90
11 | GFGTILKALAKIAGKVVKKLATKPGATYMLKENLK [compound 7] | 100.00 | 100.00 | <90 | 100.00 | 100.00
12 | GIGKFLHSAKKFGKAFVGEIMNSKKKKKKKKKK [compound 5] | 98.68 | <90 | <90 | <90 | 100.00
13 | GIGKLFLHAAKKFAKAFVAEKMNS [compound 36] | 100.00 | 100.00 | <90 | <90 | 100.00
14 | GIKDLLKGAAKALVKTVLK [compound 87] | 98.43 | <90 | <90 | <90 | <90
15 | GIKIAKKAITIAKKIAKIYW [compound 69] | 100.00 | 100.00 | <90 | 93.16 | 100.00
16 | GIKKFLKSAKKFVKAFK [compound 86] | 98.88 | 100.00 | <90 | <90 | <90
